According to PubChem BioAssay AID330 (DTP/NCI, 2004):
Several values for one entry are separate records, joined by “and”; a condition that tells them apart may be missing. Equal values may be shown once. Toxic doses and inconclusive results are not listed. Peptide text beside a SMILES is read from it. * marks the point of attachment. Bn = c1ccc(C*)cc1

Tested on: P388 leukemia ip, CD2F1 mice, survival T/C
Assay: NCI In Vivo Anticancer Drug Screen. Data for tumor model P388 Leukemia (intraperitoneal) in CD2F1 (CDF1) mice
Conditions: endpoint: median survival time, higher = longer survival
Procedure, shortened: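 Mice carrying the transplanted tumor received test compound or vehicle. Survival was recorded in each group, and the value is the treated-group measurement divided by that of the vehicle-treated control group.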

[1] = dose: 50.0 mg/kg/injection, schedule: Q01DX005 (ip), vehicle: saline with Tween-80
[2] = dose: 100.0 mg/kg/injection, schedule: Q01DX005 (ip), vehicle: saline with Tween-80
[3] = dose: 200.0 mg/kg/injection, schedule: Q01DX005 (ip), vehicle: saline with Tween-80
[4] = dose: 100.0 mg/kg/injection, schedule: Q01DX009 (ip), vehicle: saline
[5] = dose: 50.0 mg/kg/injection, schedule: Q01DX005 (ip), vehicle: Klucel (hydroxypropylcellulose) (HPC)
[6] = dose: 100.0 mg/kg/injection, schedule: Q01DX005 (ip), vehicle: Klucel (hydroxypropylcellulose) (HPC)
[7] = dose: 200.0 mg/kg/injection, schedule: Q01DX005 (ip), vehicle: Klucel (hydroxypropylcellulose) (HPC)
[8] = dose: 60.0 mg/kg/injection, schedule: Q01DX005 (ip), vehicle: saline with Tween-80
[9] = dose: 120.0 mg/kg/injection, schedule: Q01DX005 (ip), vehicle: saline with Tween-80
[10] = dose: 240.0 mg/kg/injection, schedule: Q01DX005 (ip), vehicle: saline with Tween-80
[11] = dose: 25.0 mg/kg/injection, schedule: Q01DX009 (ip), vehicle: saline with Tween-80
[12] = dose: 6.25 mg/kg/injection, schedule: Q01DX009 (ip), vehicle: Klucel (hydroxypropylcellulose) (HPC)
[13] = dose: 12.5 mg/kg/injection, schedule: Q01DX009 (ip), vehicle: Klucel (hydroxypropylcellulose) (HPC)
[14] = dose: 60.0 mg/kg/injection, schedule: Q01DX005 (ip), vehicle: Klucel (hydroxypropylcellulose) (HPC)
[15] = dose: 120.0 mg/kg/injection, schedule: Q01DX005 (ip), vehicle: Klucel (hydroxypropylcellulose) (HPC)
[16] = dose: 240.0 mg/kg/injection, schedule: Q01DX005 (ip), vehicle: Klucel (hydroxypropylcellulose) (HPC)
[17] = dose: 50.0 mg/kg/injection, schedule: Q01DX009 (ip), vehicle: saline
[18] = dose: 50.0 mg/kg/injection, schedule: Q01DX009 (ip), vehicle: saline with Tween-80

CSC(=S)NNC(C)c1nccc2ccccc12 (stereo not drawn)
T/C [1]: 109 % of control | T/C [2]: 114 % of control | T/C [3]: 108 % of control

CC(=O)c1ccc(O)c(O)c1O
T/C [4]: 103 % of control and 104 % of control | T/C (dose: 200.0 mg/kg/injection, schedule: Q01DX009 (ip), vehicle: saline): 107 % of control and 120 % of control | T/C (dose: 600.0 mg/kg/injection, schedule: Q01DX009 (ip), vehicle: saline): 103 % of control and 104 % of control

O=[As]O
T/C (dose: 0.5 mg/kg/injection, schedule: Q01DX010 (ip), vehicle: saline with Tween-80): 100 % of control | T/C (dose: 1.0 mg/kg/injection, schedule: Q01DX010 (ip), vehicle: saline with Tween-80): 109 % of control | T/C (dose: 2.0 mg/kg/injection, schedule: Q01DX010 (ip), vehicle: saline with Tween-80): 109 % of control

COc1ccc(-c2nn(CCO)c(=O)c(C#N)c2-c2ccc(OC)cc2)cc1
T/C (dose: 25.0 mg/kg/injection, schedule: Q04DX002 (ip), vehicle: distilled water + Tween-80): 101 % of control | T/C (dose: 50.0 mg/kg/injection, schedule: Q04DX002 (ip), vehicle: distilled water + Tween-80): 98 % of control | T/C (dose: 100.0 mg/kg/injection, schedule: Q04DX002 (ip), vehicle: distilled water + Tween-80): 103 % of control | T/C (dose: 200.0 mg/kg/injection, schedule: Q04DX002 (ip), vehicle: distilled water + Tween-80): 89 % of control

C=C1CC[N+]2(CCCC)CCCC12 (stereo not drawn)
T/C (dose: 7.5 mg/kg/injection, schedule: Q01DX005 (ip), vehicle: saline): 104 % of control | T/C (dose: 15.0 mg/kg/injection, schedule: Q01DX005 (ip), vehicle: saline): 98 % of control | T/C (dose: 30.0 mg/kg/injection, schedule: Q01DX005 (ip), vehicle: saline): 100 % of control

CNC(=O)OC1=NCCN1
T/C [5]: 94 % of control | T/C [6]: 100 % of control | T/C [7]: 99 % of control

CN1c2ccc(C3N(C(=O)C(F)(F)F)C=CN3C(=O)C(F)(F)F)cc2Sc2cc(C3N(C(=O)C(F)(F)F)C=CN3C(=O)C(F)(F)F)ccc21
T/C [8]: 91 % of control | T/C [9]: 89 % of control | T/C [10]: 91 % of control

Cc1cc(Cl)n[nH]1
T/C (dose: 6.25 mg/kg/injection, schedule: Q01DX009 (ip), vehicle: saline with Tween-80): 108 % of control | T/C (dose: 12.0 mg/kg/injection, schedule: Q01DX009 (ip), vehicle: saline with Tween-80): 108 % of control | T/C [11]: 106 % of control

COP(=O)(OC)C1(Nc2ccccc2)C2CC3CC(C2)CC1C3 (stereo not drawn)
T/C (dose: 100.0 mg/kg/injection, schedule: Q01DX001 (ip), vehicle: saline with Tween-80): 105 % of control | T/C (dose: 200.0 mg/kg/injection, schedule: Q01DX001 (ip), vehicle: saline with Tween-80): 110 % of control | T/C (dose: 400.0 mg/kg/injection, schedule: Q01DX001 (ip), vehicle: saline with Tween-80): 102 % of control

CC(C)(C)C1=CC(=C/C=C/c2cc(C(C)(C)C)[o+]c(C(C)(C)C)c2)C=C(C(C)(C)C)O1
T/C (dose: 1.56 mg/kg/injection, schedule: Q01DX009 (ip), vehicle: Klucel (hydroxypropylcellulose) (HPC)): 105 % of control | T/C (dose: 3.12 mg/kg/injection, schedule: Q01DX009 (ip), vehicle: Klucel (hydroxypropylcellulose) (HPC)): 96 % of control | T/C [12]: 109 % of control and 111 % of control | T/C [13]: 108 % of control and 116 % of control | T/C (dose: 25.0 mg/kg/injection, schedule: Q01DX009 (ip), vehicle: Klucel (hydroxypropylcellulose) (HPC)): 109 % of control

CN1CCN(CC(O)COc2c3ccccc3nc3ccccc23)CC1 (stereo not drawn)
T/C [1]: 104 % of control | T/C [2]: 95 % of control

CC(C)(C)OOC(=O)Cc1ccccc1
T/C [8]: 104 % of control | T/C [9]: 122 % of control | T/C [10]: 122 % of control

CCN1CC2(C)CCC(OC)C34C5CC6CCC(O)(C5C(=O)O6)C(C(OC(C)=O)C23)C14 (stereo not drawn)
T/C (dose: 3.0 mg/kg/injection, schedule: Q01DX009 (ip), vehicle: saline): 100 % of control | T/C (dose: 6.0 mg/kg/injection, schedule: Q01DX009 (ip), vehicle: saline): 101 % of control | T/C (dose: 12.0 mg/kg/injection, schedule: Q01DX009 (ip), vehicle: saline): 98 % of control

COc1cc(O)c2c(-c3cc(O)ccc3O)cc(=O)oc2c1
T/C [14]: 94 % of control | T/C [15]: 88 % of control | T/C [16]: 96 % of control

CCN(CC)C(C)COC(=O)c1ccc(N)cc1 (stereo not drawn)
T/C (dose: 12.5 mg/kg/injection, schedule: Q01DX009 (ip), vehicle: saline): 86 % of control | T/C (dose: 12.5 mg/kg/injection, schedule: Q04DX003 (ip), vehicle: saline): 95 % of control | T/C (dose: 25.0 mg/kg/injection, schedule: Q04DX003 (ip), vehicle: saline): 91 % of control | T/C [17]: 100 % of control | T/C (dose: 50.0 mg/kg/injection, schedule: Q04DX003 (ip), vehicle: saline): 91 % of control

CCCCS(=O)CCC(N)C(=O)O (stereo not drawn)
T/C [8]: 98 % of control | T/C [9]: 94 % of control | T/C [10]: 93 % of control

CN1COc2ccc3ccccc3c2C1
T/C (dose: 25.0 mg/kg/injection, schedule: Q01DX009 (ip), vehicle: saline): 101 % of control | T/C [17]: 98 % of control | T/C [4]: 106 % of control

[Tl][S][Tl]
T/C [12]: 102 % of control | T/C [13]: 100 % of control

N=C1C=CC(=C(c2ccc(N)cc2)c2ccc(N)cc2)C=C1
T/C (dose: 6.25 mg/kg/injection, schedule: Q01DX005 (ip), vehicle: saline with Tween-80): 98 % of control | T/C (dose: 12.5 mg/kg/injection, schedule: Q01DX005 (ip), vehicle: saline with Tween-80): 98 % of control

CC1(c2ccccc2)C(=O)c2ccccc2N1O (stereo not drawn)
T/C (dose: 50.0 mg/kg/injection, schedule: Q04DX002 (ip), vehicle: saline): 98 % of control | T/C (dose: 100.0 mg/kg/injection, schedule: Q04DX002 (ip), vehicle: saline): 100 % of control | T/C (dose: 200.0 mg/kg/injection, schedule: Q04DX002 (ip), vehicle: saline): 101 % of control

CCOC(=O)Cn1cc([N+](=O)[O-])sc1=NC(=O)c1ccco1
T/C (dose: 100.0 mg/kg/injection, schedule: Q01DX001 (ip), vehicle: Klucel (hydroxypropylcellulose) (HPC)): 90 % of control | T/C (dose: 200.0 mg/kg/injection, schedule: Q01DX001 (ip), vehicle: Klucel (hydroxypropylcellulose) (HPC)): 98 % of control | T/C (dose: 400.0 mg/kg/injection, schedule: Q01DX001 (ip), vehicle: Klucel (hydroxypropylcellulose) (HPC)): 97 % of control

O=C1C2CC3OC3CC2C(=O)N1CCCCCCN1C(=O)C2CC3OC3CC2C1=O (stereo not drawn)
T/C [5]: 91 % of control | T/C [6]: 90 % of control | T/C [7]: 89 % of control

COc1cc(-c2c(C)oc(C)c2C(C)=O)ccc1OCc1ccccc1
T/C [14]: 92 % of control | T/C [15]: 97 % of control | T/C [16]: 91 % of control

CC1=CCC(=O)C=[N+]1Cc1ccccc1
T/C (dose: 6.25 mg/kg/injection, schedule: Q01DX005 (ip), vehicle: saline): 114 % of control | T/C (dose: 12.5 mg/kg/injection, schedule: Q01DX005 (ip), vehicle: saline): 100 % of control

NC(=O)c1ccc(C(N)=O)cc1
T/C (dose: 12.5 mg/kg/injection, schedule: Q01DX009 (ip), vehicle: saline with Tween-80): 100 % of control | T/C [11]: 100 % of control | T/C [18]: 95 % of control

CCN1CCC(OC(=O)c2ccccc2)(c2nccc3ccccc23)CC1
T/C [18]: 112 % of control

NCC(=O)NCC(=O)NC(Cc1ccc(OCc2ccccc2)cc1)C(=O)NC(CCCN=C(N)N)C(=O)O (stereo not drawn) (H-GGY(Bn)R-OH; configuration not given here)
T/C (dose: 60.0 mg/kg/injection, schedule: Q01DX005 (ip), vehicle: saline): 95 % of control | T/C (dose: 120.0 mg/kg/injection, schedule: Q01DX005 (ip), vehicle: saline): 100 % of control | T/C (dose: 240.0 mg/kg/injection, schedule: Q01DX005 (ip), vehicle: saline): 100 % of control

Cc1cc(C)n(-c2ccccc2-[n+]2noc([O-])c2C)n1
T/C [1]: 97 % of control | T/C [2]: 95 % of control | T/C [3]: 95 % of control
